Data: article PMC10590056, “Design and synthesis of cabotegravir derivatives bearing 1,2,3-triazole and evaluation of anti-liver cancer activity” (Frontiers in Pharmacology, 2023)
Several values for one entry are separate records, joined by “and”; a condition that tells them apart may be missing. Equal entries are not always repeated. Where two headings read alike, the source gives them in different places.

Tests used:
Format in all cases: cell-based
HepG2 cells [1] = assay: MTT assay for cell proliferation and cytotoxicity, HepG2; parameters: key to Inhibitory rate: inhibition rate = 1 - mean A490 sample/mean A490 control (fraction)
Outline: (§1)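 Cells grown in DMEM with 10% FBS at 37 °C, 5% CO2, seeded at 10^5 cells/mL and exposed to KJ-5 or KJ-12 at 0–32 μM for 48 h. MTT added for 4 h, formazan dissolved in DMSO, A490 read; inhibition = (1 − sample/control A490) × 100%.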

KYSE-30 cells = assay: MTT assay for cell proliferation, KYSE-30; parameters: key to Inhibitory rate: inhibition rate = 1 - mean A490 sample/mean A490 control (fraction)
Outline: as §1

HepG2 cells [2] = assay: Annexin V-FITC/PI staining for cell apoptosis (flow cytometry); settings: 24 h; for Proportion of apoptotic cells: Annexin-V/PI
Procedure: HepG2 cells were plated in a 6-well plate at a density of 5 × 10^6 cells/well and incubated for 24 h. Then, the original culture medium was replaced with 2 mL DMEM containing KJ-5 or KJ-12 (2, 4, and 8 μM) and incubated for 24 h. After incubation with KJ-5 or KJ-12, the cells were washed with cold PBS and then resuspended in 100 µL binding buffer at a concentration of 1 × 10^6 cells/mL. Then, 5 μl of FITC Annexin V and 5 µl of PI were added to the solution. The cells were gently vortexed and incubated for 15 min at room temperature (25°C) in the dark. Subsequently, 400 µL binding buffer was added to each tube, and the samples were analyzed by flow cytometry (BD Accuri™ C6 Plus) within 1 h.

p-H2AX in HepG2 cells = assay: H2AX phosphorylation by immunofluorescence and Western blotting; settings: HepG2, 24 h
Procedure: HepG2 cells were plated in laser confocal dishes (Nest, China), followed by the addition of KJ-5 or KJ-12 for 24 h. Then, 4% paraformaldehyde was added to each laser confocal dish for 20 min after rinsing with PBS. Before the goat serum was added to block for 1 h, 0.5% Triton X-100 was used to penetrate HepG2 for 30 min. Subsequently, the cells were incubated with p-H2AX (Cell Signaling Technology, MA, United States) at a 1:800 dilution at 4°C overnight. The cells were rinsed with PBS and incubated with Alexa Fluor 488 (Proteintech, Wuhan, China) at a 1:1000 dilution in dark at room temperature for 1 h. DAPI was used to stain the cell nucleus for 5 min. Then, the cells were rinsed with PBS before observing the cells under a laser confocal microscope (Nikon, Tokyo, Japan).
After being pretreated with either KJ-5 or KJ-12 at concentrations of 2, 4, or 8 μM for 24 h, the cells were harvested and lysed using an ice-cold cell lysis buffer from Beyotime Biotechnology (Shanghai, China). The proteins were mixed with a loading buffer and denatured by heating at 95°C–100°C for 5–10 min. Equal amounts of protein were loaded onto a 10% SDS-PAGE gel along with a molecular weight marker and separated by electrophoresis for 2 h. The separated proteins were transferred onto a PVDF membrane, which was blocked with 5% non-fat milk for non-specific binding sites on the membrane. […]

HepG2 cells [3] = assay: Transwell migration assay (without Matrigel); settings: HepG2, 24 h treatment, vs control
Procedure: (§2) HepG2 cells were treated with either KJ-5 or KJ-12 for 24 h. Then, the cells were suspended and seeded into the upper chamber of a 24-well Transwell plate (Corning Inc., United States) in serum-free medium. The cells were cultured for 24 h at 37°C; a medium containing 20% FBS as a chemoattractant was added to the lower chamber. HepG2 cells that had invaded through the membrane were fixed with 4% paraformaldehyde for 20 min and stained with 0.1% crystal violet. Five random fields were then imaged and quantified using an inverted fluorescence microscope (Axio Observer3, Germany). To assess invasion, transwell assays were performed in a similar manner, with the exception of coating the upper chamber of the Transwell with 100 μL of diluted Matrigel solution per well.

HepG2 cells [4] = assay: Transwell invasion assay (Matrigel); settings: HepG2, 24 h treatment, vs control
Procedure: as §2

[5] = test system: Bcl-2, Bax, cleaved caspase-9, cleaved caspase-3, cleaved PARP in HepG2 cells; assay: Western blot of mitochondrial apoptotic proteins
Procedure: After being pretreated with either KJ-5 or KJ-12 at concentrations of 2, 4, or 8 μM for 24 h, the cells were harvested and lysed using an ice-cold cell lysis buffer from Beyotime Biotechnology (Shanghai, China). The proteins were mixed with a loading buffer and denatured by heating at 95°C–100°C for 5–10 min. Equal amounts of protein were loaded onto a 10% SDS-PAGE gel along with a molecular weight marker and separated by electrophoresis for 2 h. The separated proteins were transferred onto a PVDF membrane, which was blocked with 5% non-fat milk for non-specific binding sites on the membrane. Then, the membrane was incubated with primary antibodies at 4°C overnight. Following incubation with the primary antibody, the membrane was incubated with HRP-conjugated goat anti-rabbit or goat anti-mouse IgG at 37°C for 1 h. Protein bands were visualized on the PVDF membrane using an ECL hypersensitive chemiluminescence solution and a Bio-Rad gel imaging and analysis system.

[6] = HepG2, fraction, per experiment

SMILES: COc1c2n(cc(C(=O)Nc3cccc(-c4cn(-c5c(C)cc(C)cc5C)nn4)c3)c1=O)C[C@H]1OC[C@H](C)N1C2=O [KJ-12]
- Inhibitory rate (HepG2 cells [1]; [6]): 0.742 and 0.7786 and 0.787
- ODtreated/ODcontrol (HepG2 cells [1]; [6]): 0.258 and 0.2214 and 0.213
- inhibition at 4 µM (HepG2 cells [1]; Homo sapiens, HepG2, liver cancer cells, 4 μM, read-out: Inhibition rate on liver cancer cells): ~50%
- IC50 (HepG2 cells [1]; Homo sapiens, HepG2, 48 h, MTT): 4.07 ± 0.09 µM
- inhibition at 16 µM (HepG2 cells [1]; Homo sapiens, preliminary screening, HepG2, 16 μM, 48 h, mean±SD, unit inferred, read-out: Inhibition rate (16μM), 48 h, HepG2): 76.9 ± 2.4%
- IC50 (KYSE-30 cells; Homo sapiens, KYSE-30, 48 h, MTT, read-out: IC50 KYSE-30): 11.7 ± 0.21 µM
- IC50 (KYSE-30 cells; Homo sapiens, KYSE-30, KYSE-30, one of three experiments, unit inferred, read-out: IC50, single experiment, KYSE-30): 11.8 µM
- inhibition at 16 µM (KYSE-30 cells; Homo sapiens, preliminary screening, KYSE-30, 16 μM, 48 h, mean±SD, unit inferred, read-out: Inhibition rate (16μM), 48 h, KYSE-30): 56.1 ± 4.59%
- ODtreated/ODcontrol (KYSE-30 cells; KYSE-30, first of three experiments): 0.4595
- Inhibitory rate (KYSE-30 cells; KYSE-30, given as fraction, first of three experiments): 0.5405
- Inhibitory rate (KYSE-30 cells; KYSE-30, given as fraction, second of three experiments): 0.5295
- Inhibitory rate (KYSE-30 cells; KYSE-30, given as fraction, third of three experiments): 0.614
- Inhibitory rate (KYSE-30 cells; KYSE-30, group 1 (concentration), fraction, single experiments): 0.1337 and 0.126 and 0.1387
- ODtreated/ODcontrol (KYSE-30 cells; KYSE-30, group 1 (concentration), single experiments): 0.8663 and 0.874 and 0.8613
- Inhibitory rate (KYSE-30 cells; KYSE-30, group 2 (concentration), fraction, single experiments): 0.1741 and 0.1797 and 0.2087
- ODtreated/ODcontrol (KYSE-30 cells; KYSE-30, group 2 (concentration), single experiments): 0.8259 and 0.8203 and 0.7913
- Inhibitory rate (KYSE-30 cells; KYSE-30, group 4 (concentration), fraction, single experiments): 0.2947 and 0.287 and 0.2904
- ODtreated/ODcontrol (KYSE-30 cells; KYSE-30, group 4 (concentration), single experiments): 0.7053 and 0.713 and 0.7096
- Inhibitory rate (KYSE-30 cells; KYSE-30, group 8 (concentration), fraction, single experiments): 0.4545 and 0.4401 and 0.4294
- ODtreated/ODcontrol (KYSE-30 cells; KYSE-30, group 8 (concentration), single experiments): 0.5455 and 0.5599 and 0.5706
- Inhibitory rate (KYSE-30 cells; KYSE-30, group 16 (concentration), fraction, single experiments): 0.517 and 0.5136 and 0.5274
- ODtreated/ODcontrol (KYSE-30 cells; KYSE-30, group 16 (concentration), single experiments): 0.483 and 0.4864 and 0.4726
- Inhibitory rate (KYSE-30 cells; KYSE-30, group 32 (concentration), fraction, single experiments): 0.7126 and 0.7246 and 0.731
- ODtreated/ODcontrol (KYSE-30 cells; KYSE-30, group 32 (concentration), single experiments): 0.2874 and 0.2754 and 0.269
- IC50 (KYSE-30 cells; KYSE-30, one of three experiments, unit inferred, read-out: IC50, single experiment, KYSE-30): 11.9 µM and 11.5 µM
- ODtreated/ODcontrol (KYSE-30 cells; KYSE-30, second of three experiments): 0.4705
- ODtreated/ODcontrol (KYSE-30 cells; KYSE-30, third of three experiments): 0.386
- Proportion of apoptotic cells (HepG2 cells [2]; HepG2, 2 μM): 21.2 ± 1.4%
- Proportion of apoptotic cells (HepG2 cells [2]; HepG2, 4 μM): 30.5 ± 1.1%
- Proportion of apoptotic cells (HepG2 cells [2]; HepG2, 8 μM): 44.4 ± 1.9%
- Cell apoptosis (in words) (HepG2 cells [2]; HepG2, 2, 4, 8 μM): significantly caused cell apoptosis in a concentration-dependent manner
- Expression of p-H2AX (DNA damage marker) (p-H2AX in HepG2 cells): increased the expression of p-H2AX
- Migration of HepG2 cells (transwell without Matrigel) (HepG2 cells [3]): significantly impaired
- Invasion of HepG2 cells (transwell with Matrigel) (HepG2 cells [4]): significantly impaired
- Bax levels ([5]; HepG2, 2, 4 or 8 μM, 24 h): increased
- Bax/Bcl-2 ratio ([5]; HepG2, 2, 4 or 8 μM, 24 h): increased
- Bcl-2 protein levels ([5]; HepG2, 2, 4 or 8 μM, 24 h): decreased
- Expression of cleaved PARP ([5]; HepG2, vs control): significant increase
- Expression of cleaved caspase-3 ([5]; HepG2, vs control): significant increase
- Expression of cleaved caspase-9 ([5]; HepG2, vs control): significant increase
